Tests used:
[1] = system: advanced and/or treatment-refractory solid tumors; experiment: Antitumor activity by RECIST v1.1, all solid tumors; type: in vivo, human
[2] = system: solid tumor xenograft mouse models; settings: preclinical, e.g., RCC, NSCLC, TNBC, hematologic malignancies; alone and in combination; cited from earlier work
[3] = All dose expansion (N = 58), number (percent) of efficacy evaluable patients

O=C(Cc1cccc(OC(F)(F)F)c1)Nc1ccc(CCCCc2nnc(NC(=O)Cc3ccccn3)s2)nn1 [telaglenastat, Telaglenastat]
Best overall response: Partial response [1, 3]: 1 (1.7) | Best overall response: Progressive disease [1, 3]: 33 (56.9) | Best overall response: Stable disease [1, 3]: 24 (41.4) | objective responses ([1]; BID or TID dose escalation cohorts): No objective responses | patients with time on study ≥6 months ([1]; SDs across different tumor types): 12 patients | patients with PR ([1]; dose expansion (in an RCC patient)): 1/58 | patients with SD ([1]; dose expansion, 24/58): 41.4% | patients with PD ([1]; dose expansion, 33/58): 56.9% | effect on tumor growth [2]: cytostatic-suppressive effects against tumor growth

— PMC9401498 (Clinical Cancer Research, 2021)
